Reference: patent publication US5451600A, “Substituted tetrahydrobenzopyrrolylfuranoic acid derivatives as phospholipase A2 inhibitors” (Hoffmann-La Roche Inc., priority 1994, dated 1995)
Read-outs that look alike come from different tables or passages of the source.

Key:
[1] = tested on: carrageenan-induced paw edema in rats; experiment: Carrageenan-induced paw edema model of inflammation; format: in vivo; conditions: 2 hr, rat, read-out: Carrageenan ind. paw edema % Inhib. 2 hr; for inhibition in vivo at 20 mg/kg: 20 mg/Kg ip; for inhibition in vivo at 100 mg/kg: 100 mg/Kg po; for inhibition in vivo at 10 mg/kg: 10 mg/Kg ip
[2] = molecular target: T1, PLA2 activity in human synovial fluid (HSF) (Homo sapiens, UniProt P14555); experiment: Phospholipase A2 (PLA2) enzymatic assay - % Inhibition of HSF-PLA2; format: biochemical; conditions: for inhibition at 5 µM: read-out: % Inhib. of HSF-PLA2 at 5 μM
T1 construct: Synovial fluid was obtained from patients with rheumatoid arthritis; from tissue; host or cells: cell-depleted synovial fluid of patients with rheumatoid arthritis
T1 sequence (P14555 21-144): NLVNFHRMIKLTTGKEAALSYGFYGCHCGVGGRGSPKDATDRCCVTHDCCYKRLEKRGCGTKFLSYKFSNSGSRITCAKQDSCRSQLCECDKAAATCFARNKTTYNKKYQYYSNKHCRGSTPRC
Excerpt: 1, Phospholipase A2 (PLA2) enzymatic assay - % Inhibition of HSF-PLA2
PLA2 assay procedure described by Hope et al., Inflammation 14:543-559 (1.990) was utilized to measure the inhibitory activity of the invention (inhibitor) against PLA2 activity in human synovial fluid (HSF). Synovial fluid was obtained from patients with rheumatoid arthritis. The assay procedure measured the release of [1-^14 C]oleic acid from the sn-2 position of phospholipids in autoclaved Escherichia coli previously grown in media containing [1-^14 C]oleic acid. The standard assay reaction conditions included 1×10^9 Escherichia coil (10,000 dpm ^14 C), 0.15% (v/v) cell-depleted HSF, (which was equivalent to 66 μg protein/mL) 2 mM CaCl2, 150 mM NaCl, 50 mM sodium (N-[2-hydroxyethyl] piperazine-N'-[2-ethanesulfonate]) (HEPES) buffer (pH 7.3), 1% dimethyl sulfoxide (DMSO) and various concentrations of inhibitor in a total volume of 0.5 ml. Inhibitors were dissolved in DMSO and added. The reaction was initiated by addition of HSF, incubated for 30 min at 37° C. and then stopped by addition of 2.5 ml of chloroform/methanol (1:1.5, v/v). The total lipids were extracted by the method of Bligh, E. G., and Dyer, W. J, Can. J. Biochem. Physiol. 37:911-917 (1959) by the further addition of 0.5 mL of chloroform and 1 mL of water with mixing. The lipid extract was redissolved in chloroform/methanol (9:1, v/v) containing 10 ug of carrier oleic acid. The oleic acid was separated from phospholipids by thin layer chromatography using gel-impregnated glass fiber sheets (ITLC type SG sheets). The sheets were preactivated by heating at 110° C. for 30 min. The lipid extract was applied to the sheets and chromatographed for 6 minutes, using hexane/acetic acid (100:1, v/v). The positions on the sheet containing oleic acid and phospholipids were visualized by exposure to iodine vapor and located by comparison to standards. The oleic acid and phospholipid zones were cut from the sheets, shaken individually with 2 ml of ethanol/water (80:20, v/v) and 15 ml of Aquasol, then counted for [^14 C] radioactivity (dpm). PLA2 activity, expressed as percent hydrolysis, was calculated from the formula: [formula] and was corrected for nonenzymatic hydrolysis of the substrate. Percent inhibition due to the presence of drug was calculated from the formula: [formula]
When various concentrations of a Compound of Formula I were tested, the percent inhibition at each concentration was plotted as log concentration (abscissa) versus percent inhibition (ordinate) and the IC50 was determined from this plot.

cellular PLA2 = experiment: Inhibition of Cellular Phospholipase A2 (A23187-stimulated macrophages); format: cell-based; conditions: 5 μM; rat peritoneal macrophages, A-23187 stimulated
Experimental: II. Inhibition of Cellular Phospholipase A2. - % Inhibition of Cellular PLA2
Resident macrophages were obtained from rats by peritoneal lavage with phosphate buffered saline minus Ca2^++ and Mg2^++ (PBS). Cells were washed 3 times with PBS and resuspended in Dulbecco's Modified Eagle's Medium (GiBco) containing L-glutamine low D-glucose (1000 mg/L), and sodium pyruvate (110 mg/L), supplemented with 10% fetal calf serum. Cells were counted on a Coulter ZBI cell counter and then resuspended to a concentration of 6×10^6 cells/1.5 ml. The cell suspension (1.5 ml culture dishes (35 mm) and the cells were allowed to adhere to the dishes for 90 minutes at 37° C. Dishes were washed 3 times with PBS to remove non-adherent cells. [^14 C]arachidonic acid ([^14 C]-AA, approximately […], were added to the cells (1 uCi/dish) and allowed to incorporate for 120 minutes. Medium containing unincorporated [^14 C]-AA was removed and the cell layer was again washed 3 times with PBS. Inhibitors were dissolved in dimethylsulfoxide (DMSO) and added directly to the macrophages in Hank's Balanced Salt Solution (GiBco) phosphate-buffered, pH 7.4) to obtain the desired final concentration. Cells were incubated with drug or DMSO for 30 minutes at 37° C. and were then stimulated with calcium-ionophore A-23187 (0.75 uM) for 20 minutes. The extracellular medium was removed and the [^14 C] radioactivity released into this medium from AA metabolism was measured by liquid scintillation spectroscopy. The amounts of LTB4 and PGE2 were measured in the extracellular medium by radio immunoassay with specific antisera. The effects of inhibitor were measured as percent inhibition of A23187- stimulated AA metabolite release (^14 C release, PGE2 and LTB4 production) (control) which were calculated from the formula: [formula] IC50 's were calculated as described in the HSF-PLA2 assay.

For `CC(C)CCCC(C)CCn1c2c(c3cc(Oc4ccc(C(=O)O)o4)ccc31)CCCC2` (racemic) [Example 144, rac-5-[[1,2,3,4-tetrahydro-9-(3,7-dimethyloctyl)-9H-dibenzo[b,d]pyrrol-6-yl]oxy]-2-furancarboxylic acid], the inhibition in vivo at 30 mg/kg ([1]; 30 mg/Kg ip) was 80%, the inhibition at 5 µM [2] was 78% and the “% Inhib. of cellular PLA2 at 5 μM” value (cellular PLA2) was 87%.
`CCCCCCCCn1c2c(c3cc(/C(C)=C/c4ccc(C(=O)O)o4)ccc31)CCCC2` [Example 47, (E)-5-[2-methyl-2-(1,2,3,4-tetrahydro-9-octyl-9H-dibenzo[b,d]pyrrol-6-yl)ethenyl]-2-furancarboxylic acid] gave an inhibition in vivo at 20 mg/kg [1] of 70%, an inhibition in vivo at 100 mg/kg [1] of 49% and an inhibition at 5 µM [2] of 59%. The “% Inhib. of cellular PLA2 at 5 μM” value (cellular PLA2) was 77%.
With `CCCCCCCCn1c2c(c3cc(/C(C)=C/c4ccc(C(=O)O)o4)ccc31)CCCC2(C)C` [Example 48, (E)-5-[2-methyl-2-(1,2,3,4-tetrahydro-1,1-dimethyl-9-octyl-9H-dibenzo[b,d]-pyrrol-6yl)ethenyl]-2-furancarboxylic acid] the inhibition in vivo at 10 mg/kg [1] was 58%, the inhibition at 5 µM [2] was 75% and the “% Inhib. of cellular PLA2 at 5 μM” value (cellular PLA2) was 62%.
`CCCCCCCCn1c2c(c3cc(/C=C(\C)c4ccc(C(=O)O)o4)ccc31)CCCC2` [Example 50, (E)-5-[1-methyl-2-(1,2,3,4-tetrahydro-9-octyl-9H-dibenzo[b,d]-pyrrol-6-yl)ethenyl]-2-furancarboxylic acid] was tested, and the inhibition in vivo at 20 mg/kg [1] was 56%, the inhibition at 5 µM [2] was 47% and the “% Inhib. of cellular PLA2 at 5 μM” value (cellular PLA2) was 79%.
In the case of `CCCCCCCCn1c2c(c3cc(/C=C(\C)c4ccc(C(=O)O)o4)ccc31)CCCC2(C)C` [Example 53, (E)-5-[1-methyl-2-(1,2,3,4-tetrahydro-1,1-dimethyl-9-octyl-9H-dibenzo[b,d]pyrrol-6-yl)ethenyl]-2-furancarboxylic acid], the inhibition in vivo at 10 mg/kg [1] is reported as 68%, the inhibition in vivo at 100 mg/kg [1] is reported as 55% and the inhibition at 5 µM [2] is reported as 73%. For the same molecule, the “% Inhib. of cellular PLA2 at 5 μM” value (cellular PLA2) was 63%.
For `CCCCCCCCn1c2c(c3cc(CCc4ccc(C(=O)O)o4)ccc31)CCCC2` [Example 55, 5-[2-(1,2,3,4-tetrahydro-9-octyl-9H-dibenzo[b,d]pyrrol-6-yl)ethyl]-2-furancarboxylic acid], the inhibition in vivo at 10 mg/kg [1] was 59%, the inhibition in vivo at 100 mg/kg [1] was 49% and the inhibition at 5 µM [2] was 73%. The “% Inhib. of cellular PLA2 at 5 μM” value (cellular PLA2) was 91%.
`CCCCCCCCn1c2c(c3ccc(Oc4ccc(C(=O)O)o4)cc31)CCCC2` [Example 133, 5-[(1,2,3,4-tetrahydro-9-octyl-9H-dibenzo[b,d]pyrrol-7-yl)oxy]-2-furancarboxylic acid] was tested, and the inhibition in vivo at 100 mg/kg [1] was 58%, the inhibition at 5 µM [2] was 31% and the “% Inhib. of cellular PLA2 at 5 μM” value (cellular PLA2) was 85%.
`CCCCCCCCn1c2c(c3cc(Oc4ccc(C(=O)O)o4)ccc31)CCCC2(C)C` [Example 134, 5-[(1,2,3,4-tetrahydro-1,1-dimethyl-9-octyl-9H-dibenzo[b,d]pyrrol-6-yl)oxy]-2-furancarboxylic acid] showed an inhibition in vivo at 20 mg/kg [1] of 36%, an inhibition in vivo at 100 mg/kg [1] of 48% and an inhibition at 5 µM [2] of 86%. The “% Inhib. of cellular PLA2 at 5 μM” value (cellular PLA2) was 94%.
With `O=C(O)c1ccc(Oc2ccc3c(c2)c2c(n3Cc3ccc(Cl)cc3)CCCC2)o1` [Example 139, 5-[[1,2,3,4-tetrahydro-9-(4-chlorophenyl)methyl-9H-dibenzo[b,d]pyrrol-6-yl]oxy]-2-furancarboxylic acid] the inhibition in vivo at 30 mg/kg ([1]; 30 mg/Kg ip) was 68%, the inhibition at 5 µM [2] was 31% and the “% Inhib. of cellular PLA2 at 5 μM” value (cellular PLA2) was 100%.
For `CCCCCCCCCn1c2c(c3cc(Oc4ccc(C(=O)O)o4)ccc31)CCCC2` [Example 142, 5-[(1,2,3,4-tetrahydro-9-nonyl-9H-dibenzo[b,d]pyrrol-6-yl)oxy]-2-furancarboxylic acid], the inhibition in vivo at 30 mg/kg ([1]; 30 mg/Kg po) was 48%, the inhibition at 5 µM [2] was 83% and the “% Inhib. of cellular PLA2 at 5 μM” value (cellular PLA2) was 90%.
For `O=C(O)c1ccc(Oc2ccc3c(c2)c2c(n3CCCCc3ccccc3)CCCC2)o1` [Example 145, 5-[[1,2,3,4-tetrahydro-9-(4-phenylbutyl)-9H-dibenzo[b,d]pyrrol-6-yl]oxy]-2-furancarboxylic acid], the inhibition in vivo at 30 mg/kg ([1]; 30 mg/Kg ip) was 43%, the IC50 ([2]; human synovial fluid PLA2, 30 min at 37° C., pH 7.3) was 4.8 µM and the inhibition at 5 µM [2] was 47%. For the same molecule, the “% Inhib. of cellular PLA2 at 5 μM” value (cellular PLA2) was 99%.
Work on `O=C(O)c1ccc(Oc2ccc3c(c2)c2c(n3Cc3ccc(F)cc3)CCCC2)o1` [Example 146, 5-[[9-[(4-fluorophenyl)methyl]-1,2,3,4-tetrahydro-9H-dibenzo[b,d]pyrrol-6-yl]oxy]-2-furancarboxylic acid] yielded an inhibition in vivo at 30 mg/kg ([1]; 30 mg/Kg ip) of 51%, an inhibition in vivo at 100 mg/kg [1] of 33% and an inhibition at 5 µM [2] of 37%. For the same molecule, the “% Inhib. of cellular PLA2 at 5 μM” value (cellular PLA2) was 98%.
`O=C(O)c1ccc(Oc2ccc3c(c2)c2c(n3Cc3cccc(F)c3)CCCC2)o1` [Example 147, 5-[[9-[(3-fluorophenyl)methyl]-1,2,3,4-tetrahydro-9H-dibenzo[b,d]pyrrol-6-yl]oxy]-2-furancarboxylic acid] was tested, and the inhibition in vivo at 30 mg/kg ([1]; 30 mg/Kg ip) was 49%, the inhibition at 5 µM [2] was 37% and the “% Inhib. of cellular PLA2 at 5 μM” value (cellular PLA2) was 94%.
`COc1ccc(Cn2c3c(c4cc(Oc5ccc(C(=O)O)o5)ccc42)CCCC3)cc1` [Example 149, 5-[[1,2,3,4-tetrahydro-9-[(4-methoxyphenyl)methyl]-9H-dibenzo[b,d]pyrrol-6-yl]oxy]-2-furancarboxylic acid] was tested, and the inhibition in vivo at 30 mg/kg ([1]; 30 mg/Kg ip) was 48%, the inhibition at 5 µM [2] was 62% and the “% Inhib. of cellular PLA2 at 5 μM” value (cellular PLA2) was 99%.
In the case of `COc1ccc(Cn2c3c(c4cc(Oc5ccc(C(=O)O)o5)ccc42)CCCC3)cc1OC` [Example 150, 5-[[1,2,3,4-tetrahydro-9-[(3,4-dimethoxyphenyl)methyl]-9H-dibenzo[b,d]pyrrol-6-yl]oxy]-2-furancarboxylic acid], the inhibition in vivo at 30 mg/kg ([1]; 30 mg/Kg ip) is reported as 45%, the inhibition at 5 µM [2] is reported as 42% and the “% Inhib. of cellular PLA2 at 5 μM” value (cellular PLA2) is reported as 96%.
For `Cc1cc(C)c(Cn2c3c(c4cc(Oc5ccc(C(=O)O)o5)ccc42)CCCC3)c(C)c1` [Example 152, 5-[[1,2,3,4-tetrahydro-9-[(2,4,6-trimethylphenyl)methyl]-9H-dibenzo[b,d]pyrrol-6-yl]oxy]-2-furancarboxylic acid], the inhibition at 10 µM ([2]; 10 μM (footnote a), read-out: % Inhib. of HSF-PLA2 (a: % Inhibition at 10 μM)) was 72% and the “% Inhib. of cellular PLA2 at 5 μM” value (cellular PLA2) was 89%.
Work on `CCCCCCCCn1c2c(c3cc(C(=O)c4ccc(C(=O)O)o4)ccc31)CCCC2` [Example 157, 5-[(1,2,3,4-tetrahydro-9-octyl-9H-dibenzo[b,d]pyrrol-6-yl)carbonyl]-2-furancarboxylic acid] yielded an inhibition in vivo at 20 mg/kg [1] of 41%, an inhibition in vivo at 100 mg/kg [1] of 44% and an inhibition at 5 µM [2] of 40%. The “% Inhib. of cellular PLA2 at 5 μM” value (cellular PLA2) was 68%.
